In US20220249404A1 (Nanjing Ruiying Runze Biopharmaceutical Technology Co., Inc., priority 2019, published 2022):
Like-named read-outs stand apart in the source and are kept apart here.

Key:
zebrafish [1] = assay: melanin content / effective rate on melanogenesis in zebrafish (NaOH lysis method); type: in vivo; settings: for efficacy of Flu (%): calculated using Formula 1; for efficacy of Cal (%): calculated using Formula 3
tyrosinase = tyrosinase activity of zebrafish (L-DOPA oxidation method); type: in vivo
normal mice = settings: oral administration, 20 mg/kg; cited from earlier work
C57BL/6 mice = settings: oral administration, 2.6 mg/kg, stress-induced; cited from earlier work
B16F10 cells = settings: cited from earlier work
[2] = system: normal human skin melanocytes; settings: cited from earlier work
[3] = long term oral administration, 20 mg/day; cited from earlier work
zebrafish [4] = assay: survival rate of zebrafish (PTU35h embryos, drugs alone or in combination); settings: for effect on survival rate of zebrafish: used alone; for IC50: Danio rerio, 25 h, read-out: IC50 (survival rate of zebrafish)
normal melanocytes = settings: 10^−9-10^−5 mol/L; cited from earlier work
zebrafish [5] = settings: in vivo
[6] = 0.2 mM PTU35h treatment group compared with normal control group
[7] = 0.005-1.28 μg/ml, compared with PTU35h treatment group

CNCCC(Oc1ccc(C(F)(F)F)cc1)c1ccccc1 (racemic) [fluoxetine]
melanin content in zebrafish (zebrafish [1]; 6.4-25.6 μg/ml, compared with PTU35h treatment group): increase the melanin content in zebrafish in a dose-dependent manner
effective rate (%) on melanogenesis in zebrafish (zebrafish [1]; Flu alone 0.1 μg/ml): 4.962%
effective rate (%) on melanogenesis in zebrafish (zebrafish [1]; Flu alone 0.1 μg/ml, listed as Flu): 4.5%
effective rate (%) on melanogenesis in zebrafish (zebrafish [1]; Flu alone 0.4 μg/ml): 6.564%
effective rate (%) on melanogenesis in zebrafish (zebrafish [1]; Flu alone 1.6 μg/ml): 10.260%
effective rate (%) on melanogenesis in zebrafish (zebrafish [1]; Flu alone 1.6 μg/ml, listed as Flu): 10.26%
effective rate (%) on melanogenesis in zebrafish (zebrafish [1]; Flu alone 6.4 μg/ml): 25.804%
effective rate (%) on melanogenesis in zebrafish (zebrafish [1]; Flu alone 25.6 μg/ml): 26.536%
efficacy of Flu (%) (zebrafish [1]; listed as Flu 0.1 μg/ml): 3.151%
efficacy of Flu (%) (zebrafish [1]; listed as Flu 0.4 μg/ml): 3.218%
efficacy of Flu (%) (zebrafish [1]; listed as Flu 1.6 μg/ml): 3.486%
efficacy of Flu (%) (zebrafish [1]; listed as Flu 6.4 μg/ml): 4.547%
efficacy of Flu (%) (zebrafish [1]; listed as Flu 25.6 μg/ml): 8.629%
tyrosinase activity of zebrafish (tyrosinase; 1.6-25.6 μg/ml, compared with PTU35h treatment group): increase the tyrosinase activity of zebrafish in a dose-dependent manner
skin coloring (normal mice): can promote skin coloring
skin discoloration of unhaired back (C57BL/6 mice): can improve skin discoloration
synthesis (melanin) of B16F10 cells (B16F10 cells): can promote
melanin of normal human skin melanocytes [2]: can promote
side effects [3]: may cause side effects, such as insomnia, lethargy, suicide, neurological disorders
effect on survival rate of zebrafish (zebrafish [4]; 100 μg/ml): significantly inhibited

NC(=S)Nc1ccccc1 [PTU, 1-phenyl-2-thiourea]
melanin content in zebrafish (zebrafish [1]; [6]): decreased significantly
tyrosinase activity of zebrafish (tyrosinase; [6]): decreased significantly

C=C1CC[C@H](O)C/C1=C/C=C1\CCC[C@]2(C)[C@@H]([C@H](C)CCCC(C)C)CC[C@@H]12 [VD3, vitamin D3]
efficacy of VD3 (%) (zebrafish [1]; VD3 0.02 μg/ml, calculated using Formula 2): 3.72%
efficacy of VD3 (%) (zebrafish [1]; VD3 0.08 μg/ml, calculated using Formula 2): 5.41%
efficacy of VD3 (%) (zebrafish [1]; VD3 0.32 μg/ml, calculated using Formula 2): 11.07%
efficacy of VD3 (%) (zebrafish [1]; VD3 1.28 μg/ml, calculated using Formula 2): 15.74%
effective rate (%) on melanogenesis in zebrafish (zebrafish [1]; used alone 0.02 μg/ml): 5.564%
effective rate (%) on melanogenesis in zebrafish (zebrafish [1]; used alone 0.08 μg/ml): 7.337%
effective rate (%) on melanogenesis in zebrafish (zebrafish [1]; used alone 0.32 μg/ml): 10.315%
effective rate (%) on melanogenesis in zebrafish (zebrafish [1]; used alone 1.28 μg/ml): 15.775%
effective rate (%) on melanogenesis in zebrafish (zebrafish [1]; zebrafish, in vivo): 3.346%
efficacy of VD3 (%) (zebrafish [1]; zebrafish, in vivo): 3.28%
melanin content in zebrafish (zebrafish [1]; zebrafish, in vivo): no significant difference
tyrosinase activity of zebrafish (tyrosinase; [7]): no significant effect
effect on survival rate of zebrafish (zebrafish [4]; 5 μg/ml): significantly inhibited

C=C1/C(=C\C=C2/CCC[C@]3(C)[C@@H]([C@H](C)/C=C/[C@@H](O)C4CC4)CC[C@@H]23)C[C@@H](O)C[C@@H]1O [calcipotriol]
efficacy of Cal (%) (zebrafish [1]; Cal 0.005 μg/ml): 3.42%
efficacy of Cal (%) (zebrafish [1]; Cal 0.02 μg/ml): 3.85%
efficacy of Cal (%) (zebrafish [1]; Cal 0.08 μg/ml): 5.50%
efficacy of Cal (%) (zebrafish [1]; Cal 0.32 μg/ml): 10.77%
efficacy of Cal (%) (zebrafish [1]; Cal 1.28 μg/ml): 11.17%
effective rate (%) on melanogenesis in zebrafish (zebrafish [1]; used alone 0.005 μg/ml): 4.296%
effective rate (%) on melanogenesis in zebrafish (zebrafish [1]; used alone 0.02 μg/ml): 5.509%
effective rate (%) on melanogenesis in zebrafish (zebrafish [1]; used alone 0.08 μg/ml): 6.773%
effective rate (%) on melanogenesis in zebrafish (zebrafish [1]; used alone 0.32 μg/ml): 10.214%
effective rate (%) on melanogenesis in zebrafish (zebrafish [1]; used alone 1.28 μg/ml): 11.197%
tyrosinase activity of zebrafish (tyrosinase; [7]): no significant effect
melanogenesis of normal melanocytes (normal melanocytes): can promote melanogenesis
effect on survival rate of zebrafish (zebrafish [4]; 5 μg/ml): significantly inhibited
IC50 (zebrafish [4]): 3.5 µg/mL

C=C1/C(=C\C=C2/CCC[C@]3(C)[C@@H]([C@H](C)CC[C@@H](O)C(C)C)CC[C@@H]23)C[C@@H](O)C[C@@H]1O [tacalcitol]
effect on survival rate of zebrafish (zebrafish [5]): significantly inhibited
IC50 (zebrafish [4]): 4 µg/mL
